Results taken from patent US20250026796A1 (priority 2022, published 2025).
Where no end group is shown, it is not given here.

How the values were obtained:
[1] = target: T1, SARS-CoV-2 E (2E) (Severe acute respiratory syndrome coronavirus 2, UniProt P0DTC4); assay type: cell-based
[2] = target: T1, SARS-CoV-2 E (2E)
[3] = target: T2, HCoV-NL63 E protein (Human coronavirus NL63, UniProt Q6Q1S0); assay type: cell-based; settings: construct co-transfection, HEK 293T
[4] = mouse
[5] = test system: SARS-CoV-2 WA1 virus
[6] = test system: NIH 3T3 cells
[7] = test system: Vero-E6 cells
[8] = mouse, in vivo
[9] = target: T2, HCoV-NL63 E protein; assay type: cell-based; settings: construct co-transfection, NIH 3T3
Experimental: (§1) For the imaging experiments in FIGS. 1a-1e and 7a-7f, NIH 3T3 cells were plated at a cell density of 2.5×10^5 cells/ml. The following day, the cells were transfected using Lipofectamine 3000 reagents (Thermo-Fisher, #L3000001). 4 μg of plasmid were mixed into 125 μL of serum-free OptiMEM with 5 μL of P3000 reagent. This was then added to another 125 μL of serum-free OptiMEM containing 7.5 μL of Lipofectamine 3000. Plasmid/P3000-lipofectamine complex was incubated for 15 minutes at room temperature, and then added to the plate. The medium was replaced 20-24 h after transfection, and 1 μM of Lysosensor Green DND-189 (Thermo-Fisher, L7535) was added. The cells were incubated for 30 minutes in a 37° C., 5% CO2 incubator. The medium was replaced one final time prior to imaging. The live cell imaging was conducted on a customized/automated fluorescence microscope (Ti—U, Nikon) using an environmental chamber (TOKAI) and the culture medium to maintain normal cell culture conditions (37° C., 5% CO2, 20% O2). […] Fluorescence quantification and analysis was performed with ImageJ software and Prism 7/8/9 (GraphPad). Representative images were also gathered on a Leica DMi8 confocal microscope. The following peptides (>95% purity) were synthesized by Thermo-Fisher/Pierce: […]

[10] = target: HCoV-HKU1 E protein (Human coronavirus HKU1, UniProt Q5MQC8); assay type: cell-based; settings: construct co-transfection, NIH 3T3
Sequence of HCoV-HKU1 E protein (Q5MQC8 whole entry, looked up): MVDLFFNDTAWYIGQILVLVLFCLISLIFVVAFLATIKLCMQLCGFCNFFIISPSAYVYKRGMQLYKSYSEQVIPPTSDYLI
Experimental: as §1

[11] = target: MERS-CoV E protein (Middle East respiratory syndrome-related coronavirus, UniProt K9N5R3); assay type: cell-based
Sequence of MERS-CoV E protein (K9N5R3 whole entry, looked up): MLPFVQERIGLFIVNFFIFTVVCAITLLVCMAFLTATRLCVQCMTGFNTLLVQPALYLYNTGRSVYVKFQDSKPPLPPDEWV

[12] = target: 2E protein (Severe acute respiratory syndrome coronavirus 2, UniProt P0DTC4)
Sequence of 2E protein (P0DTC4 whole entry, looked up): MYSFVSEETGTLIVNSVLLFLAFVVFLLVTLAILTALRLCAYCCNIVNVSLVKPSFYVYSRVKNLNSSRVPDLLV

T2 sequence (Q6Q1S0 whole entry, looked up): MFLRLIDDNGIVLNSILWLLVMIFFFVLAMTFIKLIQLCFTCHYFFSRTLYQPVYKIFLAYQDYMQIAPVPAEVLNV
T1 sequence (P0DTC4 whole entry, looked up): as the sequence (P0DTC4 whole entry, looked up) above

With “RQIKIWFQNRRMKWKKMYSFVSEETGTLIVNSVL [Pen-MY18]” the “Relative fluorescent intensity of DND-189 dye compared to mock” value (from here on “Relative fluorescent intensity”) [1] was “significantly lower than mock”.

With MYSFVSDDTGTLIVNSVL [MY18-2ED] the “Relative NFAT-FLuc/TK-RLuc activity (effect of 2E on NFAT/AP-1 pathway)” value [2] was “significantly improves the inhibitory effect”.

For RRRRRRMYSFVSEETGTLIVNSVL [6Arg-MY18], the “Relative fluorescent intensity” value [1] was “significantly lower than mock”.

For MFLRLIDDNGIVLNSILW [HCoV-NL63 MY18 WT], the “Relative NFAT-FLuc/TK-RLuc activity (effect of NL63-E)” value [3] was “could significantly reduce the effect of each E on NFAT/AP-1 reporter”.

With “GRKKRRQRRRPPQMYSFVSDDTGTLIVNSVL [iPep-SARS2-E]” the Toxicity in vivo [4] was “no obvious toxicity”, the Body weight ([4]; in vivo) was “did not find that there are differences” and the “C5a (inflammation marker)” value ([4]; in vivo) was “did not find that there are differences”. For the same substance, the “Cxc112 (inflammation marker)” value ([4]; in vivo) was “did not find that there are differences” and the IC50 ([5]; WA1 virus) was roughly 200 nM.

For “GRKKRRQRRRPPQ-MYSFVSDDTGTLIVNSVL-L[C]AlexaFluo594 [TAT-MY18-2ED-Alexa Fluor 594]”, the “Cell-penetrating "on" kinetics” value [6] was “faster cell-penetrating than N-terminal version”, the Penetration into cells [7] was “can penetrate into these cells” and the “Detection of fluorescent peptide in nasal tissues” value [8] was “can permeate and is detectable in mouse nasal tissues”. For the same substance, the “Detection of fluorescent peptide in lung tissues” value ([8]; iv) was “can permeate and is detectable in mouse lung tissues”.

With “MFLRLIEEDGIVLNSILW [HCoV-NL63 MY18 2DE & N9D]” the “DND-189 fluorescence (proton homeostasis), HCoV-NL63 E” value [9] was “could significantly rescue the phenotypes in proton homeostasis” and the “Relative NFAT-FLuc/TK-RLuc activity (effect of NL63-E)” value [3] was “effective to inhibit the cellular toxicity”.

For VDLFFNETAWYIGQILV [HCoV-HKU1 MY18 D8E], the “DND-189 fluorescence (proton homeostasis), HCoV-HKU1 E” value [10] was “could significantly rescue the phenotypes in proton homeostasis”.

For MLPFVQERIGLFIVNFFI [MERS-CoV MY18 WT], the “Relative NFAT-FLuc/TK-RLuc activity (effect of MERS-E)” value [11] was “could significantly reduce the effect of each E on NFAT/AP-1 reporter”.

With MYSFVSEETGTLIVNSVL [MY18] the “Effect of synthetic peptide on 2E in DND-189-based pH imaging” value [1] was “does not have any effect on 2E”, the “Inhibition of viral toxicity (cytopathic effect)” value [5] was “moderate inhibitory effect on the virus” and the “Co-localization with 2E proteins” value [12] was “co-localized with 2E proteins”. The “Relative NFAT-FLuc/TK-RLuc activity (effect of 2E on NFAT/AP-1 pathway)” value [2] was “significantly suppresses the effect of 2E on the NFAT/AP-1 pathway”.

For “GRKKRRQRRRPPQMYSFVSEETGTLIVNSVL [TAT-MY18]”, the “Effect of synthetic peptide on 2E in DND-189-based pH imaging” value [1] was “effective cell-penetrating peptide” and the “Relative fluorescent intensity” value [1] was “not different from mock”.
